# Assay results from patent publication US20050009924A1 (priority 2003, published 2005).
# Where a name gives a salt, the structure may show the parent alone.
# Columns and labels:
# [1] = tested on: iron-induced lipid peroxidation in rat brain homogenates; test: Iron-induced lipid peroxidation in rat brain homogenates; conditions: for LP (%) (10 mM): relative percentage of inhibition (Table 1)
# [2] = MTT relative viability, PhTERT-SEAP (hTERT-BJ1) cells; conditions: human
# [3] = MTT relative viability, PhTERT-SEAP (H1299) cells; conditions: human
# [4] = tested on: transcriptional activity of hTERT; test: SEAP reporter assay of hTERT expression, PhTERT-SEAP (H1299); format: cell-based, human; conditions: for Relative SEAP activity (%) / SEAP/vibility: PhTERT-SEAP(hTERT-H1299)
# Procedure, shortened: (§1)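 Read-out: rate of absorbance rise at 405 nm from p-nitrophenyl phosphate (12 mM final) hydrolysis by secreted alkaline phosphatase in heat-treated (65° C, 10 min) culture medium. Drugs at varying amounts were applied for 24 h after a 24 h pre-culture at 37° C.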
# [5] = tested on: transcriptional activity of hTERT; test: SEAP reporter assay of hTERT expression, PhTERT-SEAP (hTERT-BJ1); format: cell-based, human; conditions: for Relative SEAP activity (%) / SEAP/vibility: PhTERT-SEAP (hTERT-BJ1)
# Procedure, shortened: as §1
# human hepatoma G2 cells = test: Cytotoxicity assay (XTT colorimetric), Hep G2; format: cell-based; conditions: 48 h of drug exposure
# rat glioma C6 cells = test: Cytotoxicity assay (XTT colorimetric), C6 cells; format: cell-based; conditions: 48 h of drug exposure
# hTERT-BJ1 cells = test: MTT relative viability, PhTERT-SEAP (hTERT-BJ1) cells; conditions: PhTERT-SEAP (hTERT-BJ1)
# [6] = tested on: non-small-cell lung cancer cells H1299; test: MTT relative viability, PhTERT-SEAP (H1299) cells; conditions: PhTERT-SEAP(hTERT-H1299)
# [7] = tested on: hepatitis B virus transfected hepatoma cell lines, HepG 2.2.15 cells; test: Cytotoxicity assay, 2.2.15 cells; format: cell-based, human; conditions: 48 h of drug exposure
smiles,measurement,setting,value
"O=C1O[C@H]([C@@H](O)CO)C(O)=C1O [Ascorbic acid, reference compound]",Inhibition (%),[1]; 0.01 mM,10 ± 0.6%
same,Inhibition (%),[1]; 0.1 mM,32 ± 1.2%
same,Inhibition (%),[1]; 1 mM,75 ± 1.5%
same,Inhibition (%),[1]; 10 mM,100%
same,Inhibition of LP(10 mM),"[1]; 10 mM, mean percent inhibition (Table 3)",>100%
same,LP (%) (10 mM),[1]; 10 mM,>100%
"O=C1c2cccc(SCCO)c2C(=O)c2cccc(SCCO)c21 [IIb, 1,5-Bis(hydroxyethylthio)-anthraquinone]","viability at 48 h, 2.8 µM",[2],94 ± 9.3%
same,"viability at 48 h, 28 µM",[2],49 ± 2.9%
same,"viability at 48 h, 280 µM",[2],23 ± 2.9%
same,"viability at 48 h, 2.8 µM",[3],54 ± 4%
same,"viability at 48 h, 28 µM",[3],29 ± 7%
same,"viability at 48 h, 280 µM",[3],36 ± 7.2%
same,activity at 2.8 µM,"[4]; Homo sapiens, NCI-H1299, 2.8 μM, H1299, read-out: Relative SEAP activity (%)",97 ± 15.7%
same,activity at 28 µM,"[4]; Homo sapiens, NCI-H1299, 28 μM, H1299, read-out: Relative SEAP activity (%)",76 ± 12.4%
same,activity at 280 µM,"[4]; Homo sapiens, NCI-H1299, 280 μM, H1299, read-out: Relative SEAP activity (%)",45 ± 2.7%
same,activity at 2.8 µM,"[5]; Homo sapiens, 2.8 μM, hTERT-BJ1, read-out: Relative SEAP activity (%)",104 ± 15.7%
same,activity at 28 µM,"[5]; Homo sapiens, 28 μM, hTERT-BJ1, read-out: Relative SEAP activity (%)",98 ± 10.9%
same,activity at 280 µM,"[5]; Homo sapiens, 280 μM, hTERT-BJ1, read-out: Relative SEAP activity (%)",71 ± 5%
same,IC50,"human hepatoma G2 cells; Homo sapiens, HepG2",36.4 ± 1.5 µM
same,IC50,"rat glioma C6 cells; Rattus norvegicus, C6",21.5 ± 0.8 µM
same,LP (%) (10 mM),[1]; 10 mM,16 ± 2.2%
"O=C1c2c(O)ccc(O)c2C(=O)c2c(NCCNCCO)ccc(NCCNCCO)c21 [Mitoxantrone-HCl, reference compound]",Inhibition (%),[1]; 0.01 mM,5 ± 0.3%
same,Inhibition (%),[1]; 0.1 mM,22 ± 3.5%
same,Inhibition (%),[1]; 1 mM,54 ± 2.1%
same,Inhibition (%),[1]; 10 mM,100%
"O=C(Nc1ccc(NC(=O)c2ccc(F)cc2)c2c1C(=O)c1ccccc1C2=O)c1ccc(F)cc1 [VI30, 1,4-Bis(4-fluorobenzoylamido)-9,10-anthracenedione]",Relative MTT viability (%),hTERT-BJ1 cells; 2.0 μM,103 ± 9.0%
same,Relative MTT viability (%),hTERT-BJ1 cells; 20 μM,107 ± 3.1%
same,Relative MTT viability (%),hTERT-BJ1 cells; 207 μM,83 ± 5.3%
same,Relative MTT viability (%),[6]; 2.0 μM,110 ± 5.9%
same,Relative MTT viability (%),[6]; 20 μM,103 ± 6.6%
same,Relative MTT viability (%),[6]; 207 μM,89 ± 6.7%
same,Relative SEAP activity (%),[4]; 2.0 μM,111 ± 3.6%
same,SEAP/vibility,[4]; 2.0 μM,1.01
same,Relative SEAP activity (%),[4]; 20 μM,107 ± 4.8%
same,SEAP/vibility,[4]; 20 μM,1.04
same,Relative SEAP activity (%),[4]; 207 μM,107 ± 9.0%
same,SEAP/vibility,[4]; 207 μM,1.20
same,IC50,[7],> 20 µM
same,Relative SEAP activity (%),[5]; 2.0 μM,104 ± 16.3%
same,SEAP/vibility,[5]; 2.0 μM,1.01
same,Relative SEAP activity (%),[5]; 20 μM,101 ± 27.6%
same,SEAP/vibility,[5]; 20 μM,0.95
same,Relative SEAP activity (%),[5]; 207 μM,100 ± 14.5%
same,SEAP/vibility,[5]; 207 μM,1.20
same,IC50,human hepatoma G2 cells,> 20 µM
same,IC50,rat glioma C6 cells,> 20 µM
"O=C(Nc1ccc(NC(=O)c2ccc(C(F)(F)F)cc2)c2c1C(=O)c1ccccc1C2=O)c1ccc(C(F)(F)F)cc1 [VI31, 1,4-Bis(4-trifluorobenzoylamido)-9,10-anthracenedione]",Relative MTT viability (%),hTERT-BJ1 cells; 1.7 μM,98 ± 4.4%
same,Relative MTT viability (%),hTERT-BJ1 cells; 17 μM,100 ± 3.4%
same,Relative MTT viability (%),hTERT-BJ1 cells; 171 μM,89 ± 3.6%
same,Relative MTT viability (%),[6]; 1.7 μM,98 ± 7.8%
same,Relative MTT viability (%),[6]; 17 μM,100 ± 8.9%
same,Relative MTT viability (%),[6]; 171 μM,77 ± 6.7%
same,Relative SEAP activity (%),[4]; 1.7 μM,110 ± 5.5%
same,SEAP/vibility,[4]; 1.7 μM,1.12
same,Relative SEAP activity (%),[4]; 17 μM,114 ± 5.6%
same,SEAP/vibility,[4]; 17 μM,1.14
same,Relative SEAP activity (%),[4]; 171 μM,96 ± 2.1%
same,SEAP/vibility,[4]; 171 μM,1.24
same,IC50,[7],> 20 µM
same,Relative SEAP activity (%),[5]; 1.7 μM,100 ± 15.1%
same,SEAP/vibility,[5]; 1.7 μM,1.02
same,Relative SEAP activity (%),[5]; 17 μM,90 ± 16.3%
same,SEAP/vibility,[5]; 17 μM,0.90
same,Relative SEAP activity (%),[5]; 171 μM,103 ± 17.6%
same,SEAP/vibility,[5]; 171 μM,1.16
same,IC50,human hepatoma G2 cells,> 20 µM
same,IC50,rat glioma C6 cells,> 20 µM
"NCC1CC1CCC(=O)Nc1ccc(NC(=O)CCC2CC2CN)c2c1C(=O)c1ccccc1C2=O (stereo not shown) [VI36, 1,4-Bis[2-(aminomnethyl)cyclopropanepropionamido]-9,10-anthracenedione]",Relative MTT viability (%),hTERT-BJ1 cells; 2.0 μM,103 ± 6.4%
same,Relative MTT viability (%),hTERT-BJ1 cells; 20 μM,92 ± 11.4%
same,Relative MTT viability (%),hTERT-BJ1 cells; 204 μM,104 ± 17.4%
same,Relative MTT viability (%),[6]; 2.0 μM,106 ± 4.1%
same,Relative MTT viability (%),[6]; 20 μM,64 ± 5.1%
same,Relative MTT viability (%),[6]; 204 μM,30 ± 4.7%
same,Relative SEAP activity (%),[4]; 2.0 μM,123 ± 12.4%
same,SEAP/vibility,[4]; 2.0 μM,1.16
same,Relative SEAP activity (%),[4]; 20 μM,112 ± 11.5%
same,SEAP/vibility,[4]; 20 μM,1.76
same,Relative SEAP activity (%),[4]; 204 μM,80 ± 14.5%
same,SEAP/vibility,[4]; 204 μM,2.71
same,IC50,[7],3.46 µM
same,Relative SEAP activity (%),[5]; 2.0 μM,91 ± 19.4%
same,SEAP/vibility,[5]; 2.0 μM,0.88
same,Relative SEAP activity (%),[5]; 20 μM,95 ± 14.2%
same,SEAP/vibility,[5]; 20 μM,1.03
same,Relative SEAP activity (%),[5]; 204 μM,65 ± 15.7%
same,SEAP/vibility,[5]; 204 μM,0.63
same,IC50,human hepatoma G2 cells,6.46 µM
same,IC50,rat glioma C6 cells,2.76 µM
